Columns and labels:
[1] = Solution test: time taken for complete dissolving in ethanol/water; format: physicochemical; conditions: 5 g in 95 g ethanol/water (equal weight contents), 20° C., stirred, optical determination
Protocol: The various rates of solution of a solids composition according to the invention according to Example 1a above and forms of I-menthol which are not according to the invention were compared.
For this, in each case 5 g I-menthol or 5 g of the I-menthol-containing solids composition according to the invention according to Example 1a were added to 95 g of a mixture, temperature-controlled at a constant 20° C., of equal weight contents of ethanol and water and the time taken for complete dissolving (optical determination) of the menthol and of the menthol-containing solids composition was determined.
The particular solution test was carried out in a glass beaker having a diameter of 5 cm and a filling height of 7 cm. The contents of the glass beaker were in each case stirred with a 4 cm long magnetic stirring fish at a magnetic stirrer speed of 4 revolutions per second during the solution test. The temperature was monitored with a Pt-100 thermometer, which was immersed 5 cm deep into the liquid, was placed at a distance of 1 cm from the glass beaker wall and simultaneously served as a baffle.
The size of the crystals here corresponded to the typical (commercially available) crystal geometry of natural I-menthol.

[2] = Storage test for caking or formation of lumps (optical and mechanical flowability check); format: physicochemical; conditions: storage times of more than three months
Protocol: In this context, a solid menthol component consisting of bodies in the form of crystals or pressed pieces was employed. The menthol-containing solids composition according to the invention which was investigated remained convenient and reliable to handle and pourable, flowable and meterable over the entire observation period.
This menthol-containing solids composition was packed in a plastic bag in a cube-shaped box and stored at 20° C. (bulk height: 50 cm). Every 14 days, the composition according to the invention was investigated optically and mechanically for its flowability.
I-Menthol (25 kg) in the form of freshly prepared needle-shaped crystals (for the particle distribution, see Example 1) was initially introduced into a mixer and mixed briefly and intensively with various amounts of magnesium oxide (calculated average particle size: 12.8 nm, specific BET surface area: 130 m^2/g, compare Example 1a). The content of magnesium oxide (solid anticaking agent) in the total solids mixture was 0.5 wt. %, 1 wt. %, 2 wt. % or 4 wt. %. The original menthol crystals were comminuted by the mixing operation (compare Example 1a). The menthol-containing solids compositions having various contents of magnesium oxide were each packed in a plastic bag in a cube-shaped box and stored at 20° C. (bulk height: 50 cm). […]

[3] = after 24 hours; cited from earlier work

With `CC(C)[C@@H]1CC[C@@H](C)C[C@H]1O` [Crystals of natural menthol, I-menthol] the “Time taken for complete dissolving” value [1] was 255 s.
For `CC(C)[C@@H]1CC[C@@H](C)C[C@H]1O` [Menthol crystals from Example 1, I-menthol], the “Time taken for complete dissolving” value [1] was 170 s.
For `CC(C)[C@@H]1CC[C@@H](C)C[C@H]1O` [Menthol crystals in lump form, obtained by storage of the me] [I-menthol], the “Time taken for complete dissolving” value [1] was 280 s.
In the case of `CC1CCC(C(C)C)C(O)C1` (stereo not drawn) [Menthol], the “Time taken for complete dissolving” value [1] was 504 s and the “formation of lumps and caking on storage” value [2] was “gradually form lumps and cake”.
In the case of `CC(C)[C@@H]1CC[C@@H](C)C[C@H]1O` [flaked I-menthol, I-menthol], the “adhesion and formation of lumps on storage” value [3] is listed as “adhesion and formation of lumps”.
